# Structures can show the parent of a compound that is named as a salt.
# Key:
# [1] = system: human colon carcinoma cell line, SW-480; assay: Sulforhodamine B (SRB) tumor cell growth inhibition assay; format: cell-based; details: SW480, 144 h, SW-480 cell line, six days continuous exposure
# Protocol: The compound of Example 1 was assayed for its growth inhibitory activity on the human colon carcinoma cell line, SW-480 obtained from ATCC (Rockville, Md.), to ascertain the degree of growth inhibition. Growth inhibition of this cell line is indicative of a benefit on precancerous lesions and neoplasms. The cell line and growth assay employed for such experiments are well characterized, and are used to evaluate the anti-neoplastic properties of NSAIDs. The assay is used by the United States National Cancer Institute in its screening program for new anti-cancer drugs.
# Drug stock solutions were made in 100% DMSO and were then diluted with RPMI media for cell culture testing. All drug solutions were prepared fresh on the day of testing. The cultured cells were obtained at passage #99 and grown in RPMI media supplemented with 5% fetal calf serum, and 2 mM glutamine, 100 U/ml penicillin, […] streptomycin, and 0.25 μg/ml amphotericin. The cultures were maintained in a humidified atmosphere of 95% air and 5% CO2 at 37° C. […]
# Tumor cell growth inhibition was assessed using the Sulforhodamine B (SRB) protein binding assay. […] The dye was then solubilized, and the optical density of the resulting solution was determined on a 96-well plate reader. […]
# For each experiment, an IC50 value was determined and used for comparative purposes. […]
# [2] = molecular target: T1, purified cyclooxygenase Type I (Ovis aries, UniProt P05979); assay: Cyclooxygenase (COX) inhibition, purified enzyme; format: biochemical; details: purified COX from ram seminal vesicles
# T1 construct: The COX was purified from ram seminal vesicles; from tissue; host or cells: ram seminal vesicles
# T1 sequence (P05979 25-600): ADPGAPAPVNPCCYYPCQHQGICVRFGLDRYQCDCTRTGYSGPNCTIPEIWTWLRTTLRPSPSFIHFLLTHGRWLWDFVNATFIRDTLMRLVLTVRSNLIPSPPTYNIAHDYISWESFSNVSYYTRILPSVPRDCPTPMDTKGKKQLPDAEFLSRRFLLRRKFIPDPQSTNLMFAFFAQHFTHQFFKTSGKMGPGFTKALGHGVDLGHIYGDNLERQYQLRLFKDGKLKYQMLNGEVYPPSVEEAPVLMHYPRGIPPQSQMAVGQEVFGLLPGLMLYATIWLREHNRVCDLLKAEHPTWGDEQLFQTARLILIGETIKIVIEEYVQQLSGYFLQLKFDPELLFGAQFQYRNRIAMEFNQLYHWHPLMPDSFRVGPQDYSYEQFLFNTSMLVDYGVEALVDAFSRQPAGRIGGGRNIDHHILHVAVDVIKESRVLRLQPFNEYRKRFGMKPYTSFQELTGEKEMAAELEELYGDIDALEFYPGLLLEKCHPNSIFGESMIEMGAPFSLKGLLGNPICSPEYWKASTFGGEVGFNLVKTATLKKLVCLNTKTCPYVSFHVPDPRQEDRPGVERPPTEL
# Protocol: COX catalyzes the formation of prostaglandins and thromboxane by the oxidative metabolism of arachidonic acid. The compound of Example 1 of this invention, as well as a positive control, (sulindac sulfide) were evaluated to determine whether they inhibited purified cyclooxygenase Type I (see Table 3 below).
# The compounds of this invention were evaluated for inhibitory effects on purified COX. The COX was purified from ram seminal vesicles, as described by Boopathy, R. and Balasubramanian, J., 239:371-377, 1988. COX activity was assayed as described by Evans, A. T., et al., “Actions of Cannabis Constituents on Enzymes Of Arachidonate Metabolism Anti-Inflammatory Potential,” Biochem. Pharmacol., 36:2035-2037, 1987. Briefly, purified COX was incubated with arachidonic acid (100 μM) for 2.0 min at 37° C. in the presence or absence of test compounds. The assay was terminated by the addition of TCA, and COX activity was determined by absorbance at 530 nm.
# [3] = system: HT-29 human colon carcinoma cells; assay: Apoptosis by morphology (acridine orange/ethidium bromide fluorescent microscopy); format: cell-based; details: HT-29 cells
# Protocol: Apoptosis was measured using an assay of cell death based on morphological characteristics of apoptotic cells (i.e., condensed chromatin). Drug preparation and cell culture conditions were the same as for the SRB assay described above, except that HT-29 human colon carcinoma cells were used. Confluent cultures were established in 12.5 cm^2 flasks by plating 0.5×10^6 cells/flask. The cultures were assayed for apoptosis by fluorescent microscopy following labeling with acridine orange and ethidium bromide. Floating and attached cells were collected by trypsinization and washed three times in PBS. One ml aliquots were centrifuged (3 g). The pellet was resuspended in 25 μl media and 1 μl of a dye mixture containing 100 μg/ml acridine orange and 100 μg/ml ethidium bromide prepared in PBS and mixed gently. Ten μl of the mixture was placed on a microscope slide and covered with a 22 mm^2 coverslip, was examined with 40x dry objectives under epillumination by filter combination.
# An observer blinded in regard to the identity of the samples scored at least 100 cells per sample. Apoptotic cells were identified by nuclear condensation of chromatin stained by the acridine orange or ethidium bromide.
# [4] = system: SW-480 colon adenocarcinoma cells; assay: Apoptosis by DNA fragmentation (Cell Death Detection ELISA plus); format: cell-based, human; details: for DNA Fragmentation FS (100 μM): fold stimulation FS=ODmax/ODveh; for DNA Fragmentation FS (100 μM) / EC50: SW-480 cells, 48 hrs; for Apoptosis Level (Mean OD Value ± SD): DNA fragmentation, SW-480
# Protocol: Apoptosis was also measured based on the amount of fragmented DNA contained in cell lysates. Briefly, SW-480 colon adenocarcinoma cells were plated in 96-well microtitre plates (“MTP”) at a density of 10 K cells/well in 180 μl and were incubated for 24 hrs. Cells were then treated with 20 μl aliquots of appropriately diluted compound, and allowed to incubate for an additional 48 hrs.
# After the incubation, samples were prepared according to the following steps. The MTP was centrifuged (15 min., 1000 rpm) and the supernatant was carefully removed by fast inversion of the MTP. The cell pellets in each well were resuspended in 200 μl lysis buffer and incubated for 45 min. at room temperature to lyse the cells. The lysates were then centrifuged (15 min., 1000 rpm) and 20 μl aliquots of the supernatant (=cytoplasmic fraction) were transferred into the streptavidin coated MTP for analysis. Care was taken not to shake the lysed pellets in the MTP (=cell nucleii containing high molecular weight, unfragmented DNA). Samples were analyzed immediately, because storage at 4C or −20C reduces the ELISA-signals.
# Samples were then processed according to a DNA fragmentation assay protocol, and dose-response curves were generated based on optical density readings. Quantification of DNA was done by a commercially available photometric enzyme-immunoassay manufactured by Mannheim-Boehringer under the name “Cell Death Detection ELISA^plus”. The assay is based on a quantitative sandwich-enzyme-immunoassay-principle using mouse monoclonal antibodies directed against DNA and histones, respectively. This allows the specific determination of mono and oligonucleosomes in the cytoplasmatic fraction of cell lysates. In brief, the assay procedure is as follows. The sample (cell-lysate, serum, culture-supematant etc.) is placed into a streptavidin-coated MTP. Subsequently, a mixture of anti-histone-biotin and anti-DNA-POD is followed by incubation for 2 hours. During the incubation period, the anti-histone antibody binds to the histone-component of the nucleosomes and simultaneously fixes the immunocomplex to the streptavidin-coated MTP via its biotinylation. Additionally, the anti-DNA-POD antibody reacts with the DNA component of the nucleosomes. After removal of unbound antibodies by a washing step, the amount of nucleosomes is quantified by the POD retained in the immunocomplex. POD is determined photometrically with ABTS® (2,2′-Azino-di[3-ethylbenzthiazolin-sulfonat])* as substrate.
# Fold stimulation (FS=ODmax/ODveh), an indicator of apoptotic response, was determined for each compound tested. EC50 values were determined either specifically by data analysis software, or by estimates based on the effective concentration range of each compound (ECR=min. effective dose-min. dose to peak effect). These FS and EC50 values for the tested compounds are listed above in Table 4.
# In addition, using the DNA fragmentation test above, a dose response for the compound of Example 1 was obtained.
compound,measurement,setting,value
"CC1=C(CC(=O)NCc2ccccc2)c2cc(F)ccc2/C1=C\c1ccncc1 [Example 1, (Z)-5-Fluoro-2-Methyl-(4-Pyridinylidene)-3-(N-Benzyl)-Indenylacetamide]",IC50,[1],0.724 µM
same,inhibition at 100 µM,[2],< 25%
same,Morphology % Apoptotic Cells (1 μM),[3],88%
same,DNA Fragmentation FS (100 μM),[4],4.2
same,EC50,"[4]; Homo sapiens, SW480",29 µM
same,Apoptosis Level (Mean OD Value ± SD),[4]; dose 0.5 μM,0.186 ± 0.008
same,Apoptosis Level (Mean OD Value ± SD),[4]; dose 1.0 μM,0.207 ± 0.061
same,Apoptosis Level (Mean OD Value ± SD),[4]; dose 5.0 μM,0.208 ± 0.073
same,Apoptosis Level (Mean OD Value ± SD),[4]; dose 10 μM,0.296 ± 0.050
same,Apoptosis Level (Mean OD Value ± SD),[4]; dose 50 μM,0.500 ± 0.048
same,Apoptosis Level (Mean OD Value ± SD),[4]; dose 100 μM,0.633 ± 0.053
same,Apoptosis Level (Mean OD Value ± SD),[4]; dose 500 μM,0.659 ± 0.012
"CC1=C(CC(=O)NCc2ccccc2)c2cc(F)ccc2/C1=C\c1ccccn1 [Example 3, (Z)-5-Fluoro-2-Methyl-(2-Pyridinylidene)-3-(N-Benzyl)-Indenylacetamide]",DNA Fragmentation FS (100 μM),[4],8.5
"CC1=C(CC(=O)NCc2ccccc2)c2cc(F)ccc2/C1=C\c1ccncc1 [Example 38, (Z)-5-Fluoro-2-Methyl-(4-Pyridylidene)-3-(N-Benzyl) Indenylacetamide Hydrochloride]",EC50,[4],15 µM
"CC1=C(CC(=O)NCc2ccccc2)c2cc(F)ccc2/C1=C\c1ccnc2ccccc12 [Example 4, (Z)-5-Fluoro-2-Methyl-(4-Quinolinylidene)-3-(N-Benzyl)-Indenylacetamide]",DNA Fragmentation FS (100 μM),[4],3.9
"CC1=C(CC(=O)NCc2ccccc2)c2cc(F)ccc2/C1=C\c1cccnc1 [Example 2, (Z)-5-Fluoro-2-Methyl-(3-Pyridinylidene)-3-(N-Benzyl)-Indenylacetamide]",DNA Fragmentation FS (100 μM),[4],5.4

# — patent US6426349B1, “Substituted condensation products of N-benzyl-3-indenylacetamides with heterocyclic aldehydes for neoplasia” (Cell Pathway and the University of Arizona, priority 1997, dated 2002)
